Biological target: T1, SaCas9 (Staphylococcus aureus, UniProt J7RUA5)
T1 sequence (J7RUA5 1-1053): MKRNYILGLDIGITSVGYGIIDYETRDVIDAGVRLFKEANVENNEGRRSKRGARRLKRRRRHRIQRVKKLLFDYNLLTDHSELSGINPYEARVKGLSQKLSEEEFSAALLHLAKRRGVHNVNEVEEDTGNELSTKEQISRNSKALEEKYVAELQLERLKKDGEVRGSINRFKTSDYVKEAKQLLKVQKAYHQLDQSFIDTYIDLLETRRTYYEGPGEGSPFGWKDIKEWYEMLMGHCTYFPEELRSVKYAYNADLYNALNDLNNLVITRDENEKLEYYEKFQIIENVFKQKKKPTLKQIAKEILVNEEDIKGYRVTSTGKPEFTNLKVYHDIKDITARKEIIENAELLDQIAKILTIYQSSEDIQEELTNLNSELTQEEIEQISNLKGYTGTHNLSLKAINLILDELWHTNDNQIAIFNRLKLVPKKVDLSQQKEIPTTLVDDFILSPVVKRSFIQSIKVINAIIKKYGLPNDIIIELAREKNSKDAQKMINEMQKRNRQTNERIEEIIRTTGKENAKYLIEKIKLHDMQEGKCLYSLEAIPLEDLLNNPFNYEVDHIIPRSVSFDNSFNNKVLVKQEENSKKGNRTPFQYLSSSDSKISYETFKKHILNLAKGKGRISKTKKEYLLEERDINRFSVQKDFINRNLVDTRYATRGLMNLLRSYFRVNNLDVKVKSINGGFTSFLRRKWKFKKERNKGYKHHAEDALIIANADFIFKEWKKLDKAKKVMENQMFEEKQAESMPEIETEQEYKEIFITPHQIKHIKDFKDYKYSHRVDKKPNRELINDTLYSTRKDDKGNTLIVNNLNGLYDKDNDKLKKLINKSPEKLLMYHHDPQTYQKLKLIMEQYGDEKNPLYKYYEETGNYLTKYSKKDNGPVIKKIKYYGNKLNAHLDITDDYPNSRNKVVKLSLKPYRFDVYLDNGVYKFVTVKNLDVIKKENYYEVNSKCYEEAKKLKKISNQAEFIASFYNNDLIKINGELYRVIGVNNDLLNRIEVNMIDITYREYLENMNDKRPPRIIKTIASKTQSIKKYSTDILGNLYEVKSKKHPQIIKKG
Assay: Strand displacement assay, SaCas9 primary screen
Assay type: biochemical
Settings: for Auto Zscore Rep 1 / Auto Zscore Rep 2 / Normalized Zscore Rep 1 / Normalized Zscore Rep 2: SaCas9 primary screen; for Auto Zscore Rep 1 / Normalized Zscore Rep 1: replicate 1; for Auto Zscore Rep 2 / Normalized Zscore Rep 2: replicate 2; for Normalized Zscore Rep 1 / Normalized Zscore Rep 2: weaker potential hits; for 3 sigma Hit: flag 1 = hit at 3 sigma; for 5 sigma Hit: flag 1 = hit at 5 sigma
Protocol: An overview of the screening for SaCas9 inhibitors is depicted in FIG. 14. A total of 43,168 Compounds were screened from the ICCB Libraries. Libraries screened for the initial compounds include ChemDiv 7 (34,848 cpds), Enamine 1 (5,280 cpds), ChemDiv1 (1,760 cpds), NIH Clinical Collection (450 cpds), Biomol 4—FDA Approved Library (640 cpds). A hit is determined from the Zscore, with 3-5σ being a weak hit, >5σ being a strong hit. The results of the hits include 193 Weak Hits and 249 Strong Hits. The NIH Clinical Collection 1-2014 was screened for 450 of 450 compounds, with 7 hits—1.5%. The Biomol 4—FDA Approved Library was screened for 640 of 640 compounds, with 8 hits—1.2%. […] Enamine 1 was screened for 5,280 of 6,004 compounds, with 44 hits—0.83%. Libraries are commercially available, with reference numbers utilized for compounds identifying the compound structures used. […]
Generalization of CAA to other Cas nucleases. Applicants sought to generalize CAA to other CRISPR-associated nucleases, including from Staphylococcus aureus (SaCas9). Given the similarities between SaCas9 and SpCas9 modes of DNA-substrate binding and protein folding,^26, 27 Applicants hypothesized that SaCas9-induced strand displacement could be similarly measured. Indeed, fluorescence quenching correlated with substrate cleavage in the CAA assay with active SaCas9:gRNA and an ACGGGT PAM sequence, which was validated with gel electrophoresis (FIG. 62F,G and FIG. 69F).
First, Applicants optimized various components and conditions of the strand displacement assay for Cas enzyme activity and generality with different Cas such as SpCas9 (FIG. 62B) or SaCas9 (FIG. 69F) or FnCas12a (FIG. 70A,B). Typically, SpCas9: gRNA (1:1.2 ratio) RNP was pre-formed at 1 μM in Cas9 assay buffer (20 mM Tris-HCl, pH=7.5, 100 mM KCl, 5 mM MgCl2) for 5 min at 4° C. before diluting to 10 nM in Cas9 assay buffer (2× final concentration). 25 μL of the Cas9 2× stock was manually dispensed to a black 384-well plate (Corning 3575) using electronic pipette. Apo SpCas9 (without guide RNA) was used at the same concentration as a control for no activity (mock inhibition). Following this, pre-annealed Alexa-Fluor 647 labeled substrate and quencher were also diluted to 1 nM and 5 nM in Cas9 assay buffer, respectively (2× stock solution). Next, 25 μL of the substrate/quencher solution was added manually to each well of the Cas9-containing 384-well plates using an electronic pipette and was incubated at 37° C. for 2.5 h. Fluorescent signals were read with the microplate reader set to read Alexa-Fluor 647 fluorescence. Assay was performed similarly with SaCas9 and FnCas12a using the respective enzyme, gRNA, substrate, and quencher oligos. Applicants similarly divulged the effect of PAM sequences of dsDNA on its assay specificity using TGG, TGC, AAC PAM containing substrates for SpCas9 (FIG. 62C), and ACGGGT, ACGGTT, TGCCCA PAM substrate for SaCas9 (FIG. 62F) and TTTC, TTGC, AAAG PAM substrates for FnCpf1 (FIG. 63B-C). Applicants also optimized the effective concentration of DS-AF647 and SS-AF647 fluorophores (FIG. 64A), DS-substrate to SpCas9 RNP ratio (FIG. 64B) and substrate to quencher ratio (FIG. 64C) on assay performance. Similarly, Applicants performed a time course experiment to establish the time required for maximum completion of the reaction at various substrate to SpCas9 RNP ratios (FIG. 64D).

Cc1c(NC(=O)C2=Cc3sc4c(c3CS2)CCCC4)c(=O)n(-c2ccccc2)n1C [Cpd E722-2603]
Auto Zscore Rep 1: −0.3069
Auto Zscore Rep 2: 2.714
Normalized Zscore Rep 1: 0.2035
Normalized Zscore Rep 2: 0.262
3 sigma Hit: 1

CN(C)S(=O)(=O)Nc1ccc(N2CCN(CC(=O)N3CCCC3)CC2)c(C(=O)O)c1 [Cpd F290-0671]
Auto Zscore Rep 1: −0.453
Auto Zscore Rep 2: −0.8512
Normalized Zscore Rep 1: 0.1922
Normalized Zscore Rep 2: 0.2017
3 sigma Hit: 1

CCN(Cc1ccccc1)c1ncc(NS(=O)(=O)c2ccc(F)cc2)cc1C(=O)O [Cpd F293-0001]
Auto Zscore Rep 1: 0.4484
Auto Zscore Rep 2: 1.331
Normalized Zscore Rep 1: 0.18
Normalized Zscore Rep 2: 0.1781
3 sigma Hit: 1

CCN(Cc1ccccc1)c1ncc(NS(=O)(=O)c2c(C)cc(C)cc2C)cc1C(=O)O [Cpd F293-0002]
Auto Zscore Rep 1: 0.3791
Auto Zscore Rep 2: −0.09351
Normalized Zscore Rep 1: 0.2023
Normalized Zscore Rep 2: 0.2291
3 sigma Hit: 1

CCN(Cc1ccccc1)c1ncc(NS(=O)(=O)c2ccccc2)cc1C(=O)O [Cpd F293-0004]
Auto Zscore Rep 1: 1.668
Auto Zscore Rep 2: 0.9183
Normalized Zscore Rep 1: 0.2707
Normalized Zscore Rep 2: 0.1884
3 sigma Hit: 1
5 sigma Hit: 1

CCN(Cc1ccccc1)c1ncc(NS(=O)(=O)CC)cc1C(=O)O [Cpd F293-0006]
Auto Zscore Rep 1: 1.342
Auto Zscore Rep 2: 0.9231
Normalized Zscore Rep 1: 0.3022
Normalized Zscore Rep 2: 0.2957
3 sigma Hit: 1
5 sigma Hit: 1

CCN(Cc1ccccc1)c1ncc(NS(=O)(=O)c2cc(C)ccc2C)cc1C(=O)O [Cpd F293-0010]
Auto Zscore Rep 1: 2.149
Auto Zscore Rep 2: 2.534
Normalized Zscore Rep 1: 0.2507
Normalized Zscore Rep 2: 0.2028
3 sigma Hit: 1
5 sigma Hit: 1

Cc1cc(C)c(S(=O)(=O)Nc2cnc(N3CCCC3)c(C(=O)O)c2)c(C)c1 [Cpd F293-0426]
Auto Zscore Rep 1: 0.8114
Auto Zscore Rep 2: 1.196
Normalized Zscore Rep 1: 0.2469
Normalized Zscore Rep 2: 0.2531
3 sigma Hit: 1
5 sigma Hit: 1

COc1ccc(OC)c(S(=O)(=O)Nc2cnc(N3CCCC3)c(C(=O)O)c2)c1 [Cpd F293-0436]
Auto Zscore Rep 1: −1.371
Auto Zscore Rep 2: 1.264
Normalized Zscore Rep 1: 0.1977
Normalized Zscore Rep 2: 0.2223
3 sigma Hit: 1

O=C(O)c1cc(NS(=O)(=O)c2ccc3c(c2)CCCC3)cnc1N1CCCC1 [Cpd F293-0441]
Auto Zscore Rep 1: 1.399
Auto Zscore Rep 2: 1.863
Normalized Zscore Rep 1: 0.3305
Normalized Zscore Rep 2: 0.3044
3 sigma Hit: 1
5 sigma Hit: 1

Cc1cc(C)c(S(=O)(=O)Nc2cnc(N3CCCC3)c(C(=O)O)c2)cc1C [Cpd F293-0458]
Auto Zscore Rep 1: 1.794
Auto Zscore Rep 2: 2.846
Normalized Zscore Rep 1: 0.4509
Normalized Zscore Rep 2: 0.429
3 sigma Hit: 1
5 sigma Hit: 1

CCN(CCN(C)C)c1ncc(NS(=O)(=O)c2cc(C)c(C)cc2C)cc1C(=O)O [Cpd F293-0515]
Auto Zscore Rep 1: 2.129
Auto Zscore Rep 2: 2.544
Normalized Zscore Rep 1: 0.2953
Normalized Zscore Rep 2: 0.3056
3 sigma Hit: 1
5 sigma Hit: 1

CCCCN(CC)c1ncc(NS(=O)(=O)CC)cc1C(=O)O [Cpd F293-0526]
Auto Zscore Rep 1: 0.7951
Auto Zscore Rep 2: −0.08392
Normalized Zscore Rep 1: 0.179
Normalized Zscore Rep 2: 0.186
3 sigma Hit: 1

CCCCN(CC)c1ncc(NS(C)(=O)=O)cc1C(=O)O [Cpd F293-0529]
Auto Zscore Rep 1: 0.1547
Auto Zscore Rep 2: −0.2374
Normalized Zscore Rep 1: 0.1815
Normalized Zscore Rep 2: 0.1895
3 sigma Hit: 1

CCS(=O)(=O)Nc1cnc(N(CC(C)C)CC(C)C)c(C(=O)O)c1 [Cpd F293-0563]
Auto Zscore Rep 1: 1.978
Auto Zscore Rep 2: 2.223
Normalized Zscore Rep 1: 0.2792
Normalized Zscore Rep 2: 0.3121
3 sigma Hit: 1
5 sigma Hit: 1

Cc1cc(C)c(S(=O)(=O)Nc2cnc(N(CC(C)C)CC(C)C)c(C(=O)O)c2)cc1C [Cpd F293-0589]
Auto Zscore Rep 1: 1.656
Auto Zscore Rep 2: 0.2997
Normalized Zscore Rep 1: 0.335
Normalized Zscore Rep 2: 0.2929
3 sigma Hit: 1
5 sigma Hit: 1

CCN(CC)c1ncc(NS(=O)(=O)c2cc(C)c(C)cc2C)cc1C(=O)O [Cpd F293-0740]
Auto Zscore Rep 1: 0.2771
Auto Zscore Rep 2: −0.1319
Normalized Zscore Rep 1: 0.2333
Normalized Zscore Rep 2: 0.2114
3 sigma Hit: 1
5 sigma Hit: 1

O=C(O)c1cc(NS(=O)(=O)c2cc(F)ccc2F)cnc1N1CCOCC1 [Cpd F293-0775]
Auto Zscore Rep 1: −0.9384
Auto Zscore Rep 2: 0.6834
Normalized Zscore Rep 1: 0.1939
Normalized Zscore Rep 2: 0.1646
3 sigma Hit: 1

CN(C)c1ncc(NS(=O)(=O)c2cc(F)ccc2F)cc1C(=O)O [Cpd F293-0814]
Auto Zscore Rep 1: 2.553
Auto Zscore Rep 2: 2.947
Normalized Zscore Rep 1: 0.2358
Normalized Zscore Rep 2: 0.2376
3 sigma Hit: 1
5 sigma Hit: 1

CN(C)c1ncc(NS(=O)(=O)c2ccc(F)c(F)c2)cc1C(=O)O [Cpd F293-0815]
Auto Zscore Rep 1: 1.676
Auto Zscore Rep 2: 1.235
Normalized Zscore Rep 1: 0.2087
Normalized Zscore Rep 2: 0.159
3 sigma Hit: 1

CCS(=O)(=O)Nc1cnc(N(C)CCCc2c(C)nn(C)c2C)c(C(=O)O)c1 [Cpd F293-0908]
Auto Zscore Rep 1: −0.5672
Auto Zscore Rep 2: 0.4148
Normalized Zscore Rep 1: 0.2527
Normalized Zscore Rep 2: 0.2772
3 sigma Hit: 1
5 sigma Hit: 1
